Test systems include EKVX NSCLC; SK-OV-3 ovarian; HL-60(TB) leukemia; PC-3 prostate; OVCAR-3 ovarian; OVCAR-8 ovarian; UO-31 renal; MDA-MB-435; NCI/ADR-RES ovarian; BT-549 breast.
Holding throughout (experiment): NCI tumour cell line growth inhibition, 48 h

Among the data in PubChem BioAssay (NCI) are GI50 and TGI values, retold here.

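Step 1: Grow cells in 96-well plates. Step 2: Expose to compound for 48 hours at 5 concentrations. Step 3: Interpolate endpoints linearly; if unreached, use highest concentration. GI50: concentration for 50% inhibition of growth. At the TGI there is no net growth.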

As for `O=C(CSc1ncc(-c2ccccc2)n1-c1ccccc1)Nc1ccc(-c2nc3ccccc3s2)cc1`, the GI50 is 8.82 µM in the assay with EKVX NSCLC; 55.7 µM in the assay with SK-OV-3 ovarian; over 100 µM in the assay with HL-60(TB) leukemia; over 100 µM in the assay on PC-3 prostate; 7.22 µM in the assay with OVCAR-3 ovarian. For the same molecule, the TGI in the assay on EKVX NSCLC, in the assay on SK-OV-3 ovarian, in the assay with HL-60(TB) leukemia, in the assay with PC-3 prostate and with OVCAR-3 ovarian was over 100 µM each time.

As for `O=C1C(Br)=CC2(C=C1Br)CCNc1c(O)c3c4c(c12)=NCCC=4C=N3`, the TGI in the assay with EKVX NSCLC came out at 0.521 µM; with SK-OV-3 ovarian, 4.26 µM; in the assay with OVCAR-8 ovarian, 0.511 µM; with UO-31 renal it was 0.685 µM; in the assay with MDA-MB-435 it was 0.245 µM; in the assay with NCI/ADR-RES ovarian, 0.58 µM. Besides, the TGI is 0.993 µM in the assay on PC-3 prostate, 0.507 µM with BT-549 breast and 0.0835 µM with OVCAR-3 ovarian.

As to `C#Cc1ccc(-n2c(/C=C/c3ccc4ccccc4c3)nc3ncccc3c2=O)cc1`, the GI50 was 7.55 µM in the assay on SK-OV-3 ovarian; 3.05 µM with OVCAR-8 ovarian; 3.11 µM in the assay on UO-31 renal; 2.06 µM with MDA-MB-435; 1.66 µM with HL-60(TB) leukemia; 3.29 µM in the assay with NCI/ADR-RES ovarian. Moreover, the GI50 in the assay with PC-3 prostate is 2.35 µM; with BT-549 breast it was 1.98 µM. Moreover, the TGI in the assay with SK-OV-3 ovarian is over 100 µM; in the assay with OVCAR-8 ovarian, over 100 µM; with UO-31 renal, over 100 µM; in the assay with MDA-MB-435 it was over 100 µM; in the assay on HL-60(TB) leukemia, 8.83 µM; in the assay on NCI/ADR-RES ovarian, over 100 µM. The TGI in the assay on PC-3 prostate is over 100 µM; in the assay with BT-549 breast, 5.45 µM.

Turning to `Fc1ccc(-c2nn3c(COc4ccc(Cl)cc4Cl)nnc3s2)cc1Oc1ccccc1`, the GI50 is 23.7 µM in the assay on EKVX NSCLC; 27.8 µM in the assay with OVCAR-8 ovarian; 30 µM with UO-31 renal; 16.8 µM in the assay with MDA-MB-435; 8.94 µM in the assay on PC-3 prostate; 19.3 µM in the assay with BT-549 breast. The GI50 with OVCAR-3 ovarian is 0.705 µM. Besides, the TGI was 67.3 µM in the assay on EKVX NSCLC; over 100 µM with OVCAR-8 ovarian; over 100 µM in the assay on UO-31 renal; 50.8 µM in the assay on MDA-MB-435; 21.4 µM with PC-3 prostate; 43.8 µM in the assay with BT-549 breast. Moreover, the TGI in the assay on OVCAR-3 ovarian amounted to 13.3 µM.

Turning to `Fc1ccc(-c2c(-c3ccncc3)[nH]c3nccnc23)cc1`, the GI50 is 8.25 µM with SK-OV-3 ovarian; 10.4 µM with OVCAR-8 ovarian; 3.43 µM in the assay with UO-31 renal; 11.6 µM with MDA-MB-435; 16.3 µM with HL-60(TB) leukemia; 16.1 µM in the assay with NCI/ADR-RES ovarian. Further, the GI50 in the assay on PC-3 prostate is over 25 µM; in the assay with BT-549 breast it was over 15.2 µM; in the assay on OVCAR-3 ovarian, 10.3 µM. Besides, the TGI with SK-OV-3 ovarian, with OVCAR-8 ovarian, in the assay with UO-31 renal, in the assay on MDA-MB-435, in the assay with HL-60(TB) leukemia and with NCI/ADR-RES ovarian was over 25 µM in each case. The TGI in the assay with PC-3 prostate, in the assay on BT-549 breast and in the assay on OVCAR-3 ovarian was over 25 µM in each case.

Turning to `COc1ccc(/C=C2/CN(CCC#N)C/C(=C\c3ccc(OC)cc3)C2=O)cc1`, the GI50 was 5.24 µM with SK-OV-3 ovarian; 3.05 µM in the assay on OVCAR-8 ovarian; 1.74 µM with UO-31 renal; 2.99 µM in the assay with MDA-MB-435; 3.73 µM with NCI/ADR-RES ovarian; 2.67 µM in the assay with PC-3 prostate. The GI50 in the assay with BT-549 breast was 2.1 µM; in the assay with OVCAR-3 ovarian, 2.79 µM. Further, the TGI with SK-OV-3 ovarian was 51.8 µM; with OVCAR-8 ovarian, over 100 µM; with UO-31 renal it was 4.86 µM; with MDA-MB-435 it was over 100 µM; in the assay on NCI/ADR-RES ovarian, over 100 µM; in the assay with PC-3 prostate, over 100 µM. The TGI in the assay on BT-549 breast worked out at 4.73 µM; with OVCAR-3 ovarian, 7.46 µM.

Turning to `COc1cc(Cn2c(SCC(=O)Nc3ccc(Cl)cc3)nc3ccccc3c2=O)cc(OC)c1OC`, the GI50 was 4.2 µM in the assay on SK-OV-3 ovarian; 4.82 µM with OVCAR-8 ovarian; 3.75 µM in the assay on UO-31 renal; 22.8 µM with MDA-MB-435; over 100 µM with HL-60(TB) leukemia; 8.38 µM in the assay on NCI/ADR-RES ovarian. The GI50 in the assay on PC-3 prostate is 16.7 µM; in the assay with BT-549 breast it was 6.42 µM; in the assay on OVCAR-3 ovarian, 7.86 µM. The TGI with SK-OV-3 ovarian is 16.7 µM; in the assay with OVCAR-8 ovarian, 16.1 µM; in the assay with UO-31 renal it was 32.4 µM; in the assay with MDA-MB-435 it was over 100 µM; with HL-60(TB) leukemia, over 100 µM; with NCI/ADR-RES ovarian it was 27.6 µM. In addition, the figures for the TGI in the assay on PC-3 prostate, with BT-549 breast and in the assay with OVCAR-3 ovarian were over 100 µM, 23.8 µM and 31 µM, respectively.

In the case of `O=C1NC(=N[C@H](CO)c2ccccc2)S/C1=C\c1ccc2ncccc2c1`, the GI50 in the assay on SK-OV-3 ovarian is 5.11 µM; in the assay on OVCAR-8 ovarian, 5.27 µM; in the assay with UO-31 renal it was 4.61 µM; with MDA-MB-435, 5.37 µM; with HL-60(TB) leukemia it was 4.19 µM; with NCI/ADR-RES ovarian, over 19.3 µM. Also, the GI50 with PC-3 prostate was 4.07 µM; in the assay on BT-549 breast it was 3.95 µM; in the assay with OVCAR-3 ovarian it was 4.13 µM. In addition, the TGI was 17.6 µM with SK-OV-3 ovarian; over 25 µM with OVCAR-8 ovarian; 13.8 µM in the assay on UO-31 renal; over 25 µM with MDA-MB-435; 16.7 µM with HL-60(TB) leukemia; over 25 µM with NCI/ADR-RES ovarian. Also, the TGI in the assay with PC-3 prostate was over 25 µM; in the assay on BT-549 breast, over 16 µM; in the assay on OVCAR-3 ovarian, 13.7 µM.

As to `Cc1cn2c(/C=C3/C(=O)Nc4ccc(Cl)cc43)c(C)nc2s1`, the GI50 with EKVX NSCLC is 12.5 µM; in the assay with SK-OV-3 ovarian, 0.384 µM; with OVCAR-8 ovarian, 2.75 µM; in the assay with UO-31 renal, 15.6 µM; with MDA-MB-435 it was 2.12 µM; in the assay with NCI/ADR-RES ovarian, 0.0211 µM. The GI50 with PC-3 prostate was 0.0447 µM; with BT-549 breast, 5.94 µM; in the assay on OVCAR-3 ovarian, 0.564 µM. In addition, the TGI in the assay with EKVX NSCLC is over 100 µM; with SK-OV-3 ovarian it was 24.2 µM; with OVCAR-8 ovarian it was 32.7 µM; with UO-31 renal it was over 100 µM; in the assay with MDA-MB-435, 5.41 µM; with BT-549 breast it was 97.1 µM. The same molecule returned a TGI in the assay on OVCAR-3 ovarian of 5.28 µM.
